In PubChem BioAssay (NCI):
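Dose response: 5 concentrations. Exposure: 48 h. Format: 96-well plates. Endpoint: linear interpolation; highest concentration if not reached. GI50 = concentration required for 50% inhibition of growth. Definition used: TGI = concentration required for complete inhibition of growth.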

How the values were obtained:
Experiment in all cases: NCI tumour cell line growth inhibition, 48 h
HOP-62 NSCLC = test system: HOP-62 NSCLC
MDA-N = test system: MDA-N
DU-145 prostate = test system: DU-145 prostate
A549 NSCLC = test system: A549 NSCLC
SW-620 colon = test system: SW-620 colon
MDA-MB-435 = test system: MDA-MB-435
IGROV1 ovarian = test system: IGROV1 ovarian
UACC-257 melanoma = test system: UACC-257 melanoma
T-47D breast = test system: T-47D breast
MDA-MB-231 breast = test system: MDA-MB-231 breast
OVCAR-8 ovarian = test system: OVCAR-8 ovarian
SNB-75 CNS = test system: SNB-75 CNS
HT29 colon = test system: HT29 colon
MOLT-4 leukemia = test system: MOLT-4 leukemia
RPMI-8226 leukemia = test system: RPMI-8226 leukemia
K-562 leukemia = test system: K-562 leukemia
LOX IMVI melanoma = test system: LOX IMVI melanoma
RXF 393 renal = test system: RXF 393 renal
TK-10 renal = test system: TK-10 renal
HL-60(TB) leukemia = test system: HL-60(TB) leukemia
SF-268 CNS = test system: SF-268 CNS
HCC-2998 colon = test system: HCC-2998 colon
EKVX NSCLC = test system: EKVX NSCLC
786-0 renal = test system: 786-0 renal
HOP-92 NSCLC = test system: HOP-92 NSCLC
PC-3 prostate = test system: PC-3 prostate
SN12C renal = test system: SN12C renal
SR leukemia = test system: SR leukemia
CCRF-CEM leukemia = test system: CCRF-CEM leukemia
KM12 colon = test system: KM12 colon
NCI-H23 lung = test system: NCI-H23 lung
MCF7 breast = test system: MCF7 breast
CAKI-1 renal = test system: CAKI-1 renal
MALME-3M melanoma = test system: MALME-3M melanoma
SK-OV-3 ovarian = test system: SK-OV-3 ovarian
SF-295 CNS = test system: SF-295 CNS
SK-MEL-5 melanoma = test system: SK-MEL-5 melanoma
OVCAR-4 ovarian = test system: OVCAR-4 ovarian
HCT-15 colon = test system: HCT-15 colon
SK-MEL-2 melanoma = test system: SK-MEL-2 melanoma
UACC-62 melanoma = test system: UACC-62 melanoma
NCI/ADR-RES ovarian = test system: NCI/ADR-RES ovarian
OVCAR-5 ovarian = test system: OVCAR-5 ovarian
UO-31 renal = test system: UO-31 renal
NCI-H522 lung = test system: NCI-H522 lung
COLO 205 colon = test system: COLO 205 colon
SF-539 CNS = test system: SF-539 CNS
SNB-19 CNS = test system: SNB-19 CNS
U251 CNS = test system: U251 CNS
OVCAR-3 ovarian = test system: OVCAR-3 ovarian
BT-549 breast = test system: BT-549 breast
NCI-H460 lung = test system: NCI-H460 lung
NCI-H226 lung = test system: NCI-H226 lung
HS 578T breast = test system: HS 578T breast
SK-MEL-28 melanoma = test system: SK-MEL-28 melanoma
HCT-116 colon = test system: HCT-116 colon
ACHN renal = test system: ACHN renal
M14 melanoma = test system: M14 melanoma
A498 renal = test system: A498 renal

CCN(CC)CCN1CCNc2c3cc(OC)ccc3nc3c([N+](=O)[O-])ccc1c23
TGI (HOP-62 NSCLC): 2.64 µM
TGI (MDA-N): 2.27 µM
TGI (DU-145 prostate): > 10 µM
TGI (A549 NSCLC): 9.07 µM
TGI (SW-620 colon): 5.4 µM
TGI (MDA-MB-435): 2.69 µM
TGI (IGROV1 ovarian): 9.25 µM
TGI (UACC-257 melanoma): 5.7 µM
TGI (T-47D breast): > 10 µM
TGI (MDA-MB-231 breast): 2.23 µM
TGI (OVCAR-8 ovarian): > 10 µM
TGI (SNB-75 CNS): 6.43 µM
TGI (HT29 colon): 6.39 µM
TGI (MOLT-4 leukemia): 1.42 µM
TGI (RPMI-8226 leukemia): 2.87 µM
TGI (K-562 leukemia): > 10 µM
TGI (LOX IMVI melanoma): 3.21 µM
TGI (RXF 393 renal): 2.11 µM
TGI (TK-10 renal): > 10 µM
TGI (HL-60(TB) leukemia): 2.12 µM
TGI (SF-268 CNS): > 10 µM
TGI (HCC-2998 colon): 2.03 µM
TGI (EKVX NSCLC): 4.68 µM
TGI (786-0 renal): 1.61 µM
TGI (HOP-92 NSCLC): 6.18 µM
TGI (PC-3 prostate): 2.25 µM
TGI (SN12C renal): 2.36 µM
TGI (SR leukemia): 1.19 µM
TGI (CCRF-CEM leukemia): 2.32 µM
TGI (KM12 colon): 6.21 µM
TGI (NCI-H23 lung): 2.44 µM
TGI (MCF7 breast): 2.98 µM
TGI (CAKI-1 renal): > 10 µM
TGI (MALME-3M melanoma): 3.23 µM
TGI (SK-OV-3 ovarian): > 10 µM
TGI (SF-295 CNS): 4.28 µM
TGI (SK-MEL-5 melanoma): 2.92 µM
TGI (OVCAR-4 ovarian): 3.12 µM
TGI (HCT-15 colon): 2.47 µM

Cc1cc(NC(=O)C2c3ccccc3C(=O)N(CC(C)C)C2c2cccs2)no1 (stereo not drawn)
GI50 (HOP-62 NSCLC): > 100 µM
TGI (HOP-62 NSCLC): > 100 µM
GI50 (SK-MEL-2 melanoma): > 100 µM
TGI (SK-MEL-2 melanoma): > 100 µM
GI50 (UACC-62 melanoma): 86 µM
TGI (UACC-62 melanoma): > 100 µM
GI50 (DU-145 prostate): > 100 µM
TGI (DU-145 prostate): > 100 µM
GI50 (A549 NSCLC): > 100 µM
TGI (A549 NSCLC): > 100 µM
GI50 (SW-620 colon): > 100 µM
TGI (SW-620 colon): > 100 µM
GI50 (NCI/ADR-RES ovarian): 90.2 µM
TGI (NCI/ADR-RES ovarian): > 100 µM
GI50 (MDA-MB-435): 33.7 µM
TGI (MDA-MB-435): > 100 µM
GI50 (IGROV1 ovarian): > 100 µM
TGI (IGROV1 ovarian): > 100 µM
GI50 (UACC-257 melanoma): > 100 µM
TGI (UACC-257 melanoma): > 100 µM
GI50 (T-47D breast): > 100 µM
TGI (T-47D breast): > 100 µM
GI50 (MDA-MB-231 breast): 21.2 µM
TGI (MDA-MB-231 breast): 93.4 µM
GI50 (OVCAR-8 ovarian): > 100 µM
TGI (OVCAR-8 ovarian): > 100 µM
GI50 (OVCAR-5 ovarian): > 100 µM
TGI (OVCAR-5 ovarian): > 100 µM
GI50 (SNB-75 CNS): 10.5 µM
TGI (SNB-75 CNS): > 100 µM
GI50 (HT29 colon): 69.5 µM
TGI (HT29 colon): > 100 µM
GI50 (MOLT-4 leukemia): 43.1 µM
TGI (MOLT-4 leukemia): > 100 µM
GI50 (RPMI-8226 leukemia): 45.5 µM
TGI (RPMI-8226 leukemia): > 100 µM
GI50 (K-562 leukemia): 50.9 µM
TGI (K-562 leukemia): > 100 µM
GI50 (UO-31 renal): 30.2 µM
TGI (UO-31 renal): > 100 µM
GI50 (LOX IMVI melanoma): > 100 µM
TGI (LOX IMVI melanoma): > 100 µM
GI50 (NCI-H522 lung): 52.2 µM
TGI (NCI-H522 lung): > 100 µM
GI50 (RXF 393 renal): 27.5 µM
TGI (RXF 393 renal): > 100 µM
GI50 (TK-10 renal): > 100 µM
TGI (TK-10 renal): > 100 µM
GI50 (COLO 205 colon): > 100 µM
TGI (COLO 205 colon): > 100 µM
GI50 (SF-539 CNS): > 100 µM
TGI (SF-539 CNS): > 100 µM
GI50 (HL-60(TB) leukemia): 39 µM
TGI (HL-60(TB) leukemia): > 100 µM
GI50 (SNB-19 CNS): 46.2 µM
TGI (SNB-19 CNS): > 100 µM
GI50 (SF-268 CNS): > 100 µM
TGI (SF-268 CNS): > 100 µM
GI50 (HCC-2998 colon): > 100 µM
TGI (HCC-2998 colon): > 100 µM
GI50 (U251 CNS): 84.2 µM
TGI (U251 CNS): > 100 µM
GI50 (786-0 renal): > 100 µM
TGI (786-0 renal): > 100 µM
GI50 (OVCAR-3 ovarian): 90.1 µM
TGI (OVCAR-3 ovarian): > 100 µM
GI50 (BT-549 breast): > 100 µM
TGI (BT-549 breast): > 100 µM
GI50 (HOP-92 NSCLC): 18.7 µM
TGI (HOP-92 NSCLC): 78.2 µM
GI50 (PC-3 prostate): 34.8 µM
TGI (PC-3 prostate): > 100 µM
GI50 (SN12C renal): > 100 µM
TGI (SN12C renal): > 100 µM
GI50 (SR leukemia): 35.5 µM
TGI (SR leukemia): > 100 µM
GI50 (CCRF-CEM leukemia): 82.5 µM
TGI (CCRF-CEM leukemia): > 100 µM
GI50 (KM12 colon): 48.4 µM
TGI (KM12 colon): > 100 µM
GI50 (NCI-H23 lung): > 100 µM
TGI (NCI-H23 lung): > 100 µM
GI50 (NCI-H460 lung): > 100 µM
TGI (NCI-H460 lung): > 100 µM
GI50 (NCI-H226 lung): > 100 µM
TGI (NCI-H226 lung): > 100 µM
GI50 (MCF7 breast): 60 µM
TGI (MCF7 breast): > 100 µM
GI50 (CAKI-1 renal): 25.6 µM
TGI (CAKI-1 renal): > 100 µM
GI50 (HS 578T breast): 86.7 µM
TGI (HS 578T breast): > 100 µM
GI50 (MALME-3M melanoma): > 100 µM
TGI (MALME-3M melanoma): > 100 µM
GI50 (SK-OV-3 ovarian): > 100 µM
TGI (SK-OV-3 ovarian): > 100 µM
GI50 (SF-295 CNS): 29 µM
TGI (SF-295 CNS): > 100 µM
GI50 (SK-MEL-5 melanoma): 73.2 µM
TGI (SK-MEL-5 melanoma): > 100 µM
GI50 (SK-MEL-28 melanoma): > 100 µM
TGI (SK-MEL-28 melanoma): > 100 µM
GI50 (HCT-116 colon): 49.1 µM
TGI (HCT-116 colon): > 100 µM
GI50 (OVCAR-4 ovarian): 31.3 µM
TGI (OVCAR-4 ovarian): > 100 µM
GI50 (HCT-15 colon): 70.6 µM
TGI (HCT-15 colon): > 100 µM
GI50 (ACHN renal): 55.2 µM
TGI (ACHN renal): > 100 µM

CC(=O)OCCC1c2ccccc2-n2nc(-c3ccccc3)c(O)c21 (stereo not drawn)
TGI (HOP-62 NSCLC): 30.1 µM
TGI (MDA-N): 33.2 µM
TGI (SK-MEL-2 melanoma): 96.6 µM
TGI (DU-145 prostate): 41.1 µM
TGI (A549 NSCLC): 37.3 µM
TGI (SW-620 colon): 31.6 µM
TGI (NCI/ADR-RES ovarian): 47 µM
TGI (MDA-MB-435): 32.3 µM
TGI (UACC-257 melanoma): 32.5 µM
TGI (MDA-MB-231 breast): 43.3 µM
TGI (OVCAR-8 ovarian): 55.9 µM
TGI (OVCAR-5 ovarian): 38.7 µM
TGI (SNB-75 CNS): 37.7 µM
TGI (HT29 colon): 42.4 µM
TGI (MOLT-4 leukemia): 56.3 µM
TGI (RPMI-8226 leukemia): 33.7 µM
TGI (K-562 leukemia): 37.7 µM
TGI (UO-31 renal): 30.8 µM
TGI (LOX IMVI melanoma): 27.4 µM
TGI (M14 melanoma): 28.6 µM
TGI (NCI-H522 lung): 32.3 µM
TGI (RXF 393 renal): 26 µM
TGI (TK-10 renal): 43.2 µM
TGI (COLO 205 colon): 40.1 µM
TGI (SF-539 CNS): 44.7 µM
TGI (HL-60(TB) leukemia): 38.4 µM
TGI (SNB-19 CNS): 32.2 µM
TGI (SF-268 CNS): 90.6 µM
TGI (HCC-2998 colon): 56 µM
TGI (U251 CNS): 26.7 µM
TGI (EKVX NSCLC): 36 µM
TGI (786-0 renal): 38.4 µM
TGI (OVCAR-3 ovarian): 49.3 µM
TGI (BT-549 breast): 33.3 µM
TGI (HOP-92 NSCLC): 27.4 µM
TGI (PC-3 prostate): 34.3 µM
TGI (SN12C renal): 31.1 µM
TGI (SR leukemia): 38.7 µM
TGI (CCRF-CEM leukemia): 50 µM
TGI (KM12 colon): 38.5 µM
TGI (NCI-H23 lung): 34.5 µM
TGI (NCI-H460 lung): 28.3 µM
TGI (NCI-H226 lung): 64.4 µM
TGI (MCF7 breast): 22.9 µM
TGI (A498 renal): 36.4 µM
TGI (CAKI-1 renal): 33.6 µM
TGI (HS 578T breast): 54.9 µM
TGI (SF-295 CNS): 45 µM
TGI (SK-MEL-5 melanoma): 33 µM
TGI (SK-MEL-28 melanoma): 30.6 µM
TGI (HCT-116 colon): 30.4 µM
TGI (OVCAR-4 ovarian): 40.5 µM
TGI (HCT-15 colon): 55.1 µM
TGI (ACHN renal): 45.1 µM
